EPA's CvTdb concentration-time database
Values joined by “and” are separate entries in the source; they are usually repeats but may differ in a detail not shown here. Equal values may be shown once.

Tested on: rat
Test: concentration in blood after dosing; negative times count back from the end of exposure
Conditions: dosed: tert-amyl methyl ether, inhalation, duration: 6 hr, male, F344 (Charles River)

CCC(C)(C)OC [tertiary amyl methyl ether]
Conditions	concentration in blood
0.2936 h, 2500 ppm	40.1 µg/mL
0.2946 h, 2500 ppm	38.2 µg/mL
0.2952 h, 2500 ppm	37.1 µg/mL
0.4294 h, 100 ppm	0.828 µg/mL
0.4521 h, 100 ppm	1.04 µg/mL
0.454 h, 100 ppm	0.626 µg/mL
0.4709 h, 500 ppm	5.8 µg/mL
0.4728 h, 500 ppm	4.75 µg/mL
0.4735 h, 500 ppm	4.38 µg/mL
0.8269 h, 2500 ppm	31.5 µg/mL
0.8277 h, 2500 ppm	30 µg/mL
0.8285 h, 2500 ppm	28.5 µg/mL
0.8324 h, 2500 ppm	20.9 µg/mL
0.9984 h, 100 ppm	0.528 µg/mL
0.9987 h, 100 ppm	0.47 µg/mL
0.9992 h, 100 ppm	0.366 µg/mL
1.018 h, 500 ppm	3.64 µg/mL and 3.27 µg/mL
1.021 h, 500 ppm	1.85 µg/mL
1.733 h, 100 ppm	0.268 µg/mL
1.755 h, 100 ppm	0.523 µg/mL
1.756 h, 100 ppm	0.418 µg/mL
1.756 h, 500 ppm	1.48 µg/mL
1.757 h, 500 ppm	0.741 µg/mL
1.926 h, 2500 ppm	12 µg/mL
1.927 h, 2500 ppm	9.45 µg/mL
1.928 h, 2500 ppm	6.65 µg/mL
3.92 h, 2500 ppm	4.45 µg/mL
3.921 h, 2500 ppm	2.07 µg/mL
3.993 h, 500 ppm	0.37 µg/mL
9.964 h, 500 ppm	0.0617 µg/mL
17.98 h, 2500 ppm	0.042 µg/mL
176 s, 100 ppm	1.24 µg/mL
260 s, 100 ppm	1.35 µg/mL
269 s, 100 ppm	0.782 µg/mL
284 s, 500 ppm	10.6 µg/mL
292 s, 500 ppm	9.51 µg/mL
299 s, 500 ppm	8.4 µg/mL
309 s, 500 ppm	6.91 µg/mL

during exposure
Conditions	concentration in blood
-254 s, 2500 ppm	82.7 µg/mL
-248 s, 2500 ppm	79.2 µg/mL
-228 s, 500 ppm	18.6 µg/mL
-5.888 h, 2500 ppm	24.9 µg/mL
-5.887 h, 100 ppm	1.06 µg/mL
-5.887 h, 2500 ppm	22.4 µg/mL
-5.886 h, 2500 ppm	20 µg/mL
-5.884 h, 2500 ppm	17.2 µg/mL
-5.883 h, 2500 ppm	14.4 µg/mL
-5.878 h, 500 ppm	2.96 µg/mL
-5.864 h, 100 ppm	1.19 µg/mL
-5.863 h, 100 ppm	1.13 µg/mL
-5.858 h, 2500 ppm	27.5 µg/mL
-5.853 h, 500 ppm	6.98 µg/mL
-5.85 h, 500 ppm	5.56 µg/mL
-5.848 h, 500 ppm	4.01 µg/mL
-5.841 h, 100 ppm	1.46 µg/mL
-5.522 h, 2500 ppm	37.7 µg/mL
-5.521 h, 2500 ppm	36.2 µg/mL
-5.494 h, 2500 ppm	44.1 µg/mL
-5.492 h, 2500 ppm	41.1 µg/mL
-5.475 h, 500 ppm	9.57 µg/mL
-5.474 h, 500 ppm	9.2 µg/mL
-5.464 h, 100 ppm	1.66 µg/mL and 1.61 µg/mL
-5.442 h, 100 ppm	2.03 µg/mL
-5.158 h, 2500 ppm	56.7 µg/mL
-5.157 h, 2500 ppm	55.1 µg/mL
-5.131 h, 2500 ppm	64.2 µg/mL
-5.129 h, 2500 ppm	60.3 µg/mL
-5.111 h, 100 ppm	2.08 µg/mL
-5.109 h, 100 ppm	1.56 µg/mL
-5.099 h, 500 ppm	13.5 µg/mL
-5.093 h, 500 ppm	10.6 µg/mL
-5.092 h, 100 ppm	3.06 µg/mL
-5.089 h, 100 ppm	2.49 µg/mL
-4.169 h, 100 ppm	2.96 µg/mL
-4.167 h, 100 ppm	2.49 µg/mL
-4.165 h, 100 ppm	2.18 µg/mL
-4.07 h, 100 ppm	1.98 µg/mL
-4.067 h, 2500 ppm	51.5 µg/mL
-4.046 h, 2500 ppm	72 µg/mL
-4.045 h, 2500 ppm	69.4 µg/mL
-4.044 h, 2500 ppm	66.6 µg/mL
-4.016 h, 500 ppm	15 µg/mL
-3.979 h, 500 ppm	12 µg/mL
-2.249 h, 2500 ppm	85.7 µg/mL
-2.248 h, 2500 ppm	83.4 µg/mL
-1.978 h, 500 ppm	17.8 µg/mL
-1.975 h, 500 ppm	16.4 µg/mL
-1.969 h, 100 ppm	2.86 µg/mL
-1.968 h, 100 ppm	2.6 µg/mL
-1.948 h, 100 ppm	3.32 µg/mL
-1.945 h, 100 ppm	2.76 µg/mL
-0.1231 h, 500 ppm	16.4 µg/mL
-0.1186 h, 500 ppm	13.9 µg/mL
-0.1052 h, 2500 ppm	89.6 µg/mL
-0.1033 h, 100 ppm	3.44 µg/mL
-0.1027 h, 100 ppm	3.32 µg/mL
-0.1027 h, 2500 ppm	84.6 µg/mL
-0.1008 h, 100 ppm	2.91 µg/mL

CCC(C)(C)O [tertiary amyl alcohol]
Conditions	concentration in blood [µg/mL]
0.1349 h, 100 ppm	3.12
0.1606 h, 500 ppm	18.7
0.161 h, 100 ppm	2.61
0.1742 h, 500 ppm	28.7
0.1776 h, 100 ppm	4.09
0.1793 h, 100 ppm	3.74
0.2114 h, 500 ppm	25.9
0.3273 h, 2500 ppm	96
0.3463 h, 2500 ppm	119
0.3468 h, 100 ppm	3.32
0.3507 h, 100 ppm	2.5
0.3521 h, 500 ppm	18.7
0.3559 h, 2500 ppm	101
0.358 h, 500 ppm	33
0.3593 h, 500 ppm	32.3
0.3685 h, 100 ppm	3.74
0.369 h, 100 ppm	3.62
0.3717 h, 500 ppm	25.5
0.8785 h, 2500 ppm	113
0.8797 h, 2500 ppm	110
0.8894 h, 2500 ppm	91.7
0.8908 h, 2500 ppm	89.1
0.9009 h, 100 ppm	1.19
0.9009 h, 500 ppm	15.4
0.9138 h, 500 ppm	25.9
0.9151 h, 500 ppm	25.1
0.9198 h, 100 ppm	2.18
0.9217 h, 500 ppm	21.5
0.9218 h, 100 ppm	1.76
1.789 h, 2500 ppm	96.8
1.799 h, 2500 ppm	76.7
1.823 h, 100 ppm	1.29
1.824 h, 2500 ppm	89.3
2.017 h, 500 ppm	16.2
2.018 h, 500 ppm	15.4
2.026 h, 500 ppm	11.4
3.851 h, 500 ppm	8.4
3.852 h, 500 ppm	7.72
3.858 h, 500 ppm	4.81
3.985 h, 2500 ppm	61.2
3.989 h, 2500 ppm	52.3
3.99 h, 2500 ppm	49.7
3.991 h, 2500 ppm	48.6
9.831 h, 2500 ppm	3.19
9.837 h, 500 ppm	0.123
17.91 h, 500 ppm	0.185
36 s, 100 ppm	4.5

during exposure
Conditions	concentration in blood
-112 s, 100 ppm	3.22 µg/mL
-97 s, 100 ppm	2.35 µg/mL
-51 s, 500 ppm	27 µg/mL
-36 s, 100 ppm	3.73 µg/mL
-27 s, 500 ppm	23.3 µg/mL
-5.969 h, 2500 ppm	2.03 µg/mL
-5.968 h, 2500 ppm	0.298 µg/mL
-5.931 h, 100 ppm	0.373 µg/mL
-5.788 h, 100 ppm	0.269 µg/mL
-5.779 h, 500 ppm	1.54 µg/mL
-5.777 h, 500 ppm	0.432 µg/mL
-5.722 h, 2500 ppm	4.83 µg/mL
-5.695 h, 100 ppm	0.53 µg/mL
-5.662 h, 2500 ppm	10 µg/mL
-5.661 h, 2500 ppm	6.98 µg/mL
-5.626 h, 100 ppm	0.895 µg/mL
-5.601 h, 100 ppm	0.79 µg/mL
-5.589 h, 500 ppm	2.72 µg/mL
-5.079 h, 2500 ppm	24.9 µg/mL
-5.077 h, 2500 ppm	21.2 µg/mL
-5.075 h, 2500 ppm	17.1 µg/mL
-5.019 h, 500 ppm	5.25 µg/mL
-5.017 h, 500 ppm	4.2 µg/mL
-5.015 h, 100 ppm	1.71 µg/mL
-5.013 h, 100 ppm	1.35 µg/mL
-5.012 h, 100 ppm	1.2 µg/mL
-5.011 h, 100 ppm	0.882 µg/mL
-4.072 h, 100 ppm	2.49 µg/mL
-4.07 h, 100 ppm	2.01 µg/mL
-4.069 h, 100 ppm	1.89 µg/mL and 1.86 µg/mL
-3.994 h, 2500 ppm	30.9 µg/mL
-3.993 h, 2500 ppm	29.6 µg/mL
-3.992 h, 2500 ppm	28.5 µg/mL
-3.908 h, 500 ppm	8.89 µg/mL
-3.906 h, 500 ppm	7.41 µg/mL
-2.076 h, 500 ppm	19.6 µg/mL
-2.075 h, 500 ppm	19 µg/mL
-2.065 h, 100 ppm	3.21 µg/mL
-2.062 h, 100 ppm	2.59 µg/mL
-2.061 h, 100 ppm	2.34 µg/mL
-2.046 h, 100 ppm	4.25 µg/mL
-2.018 h, 2500 ppm	59.8 µg/mL
-2.017 h, 2500 ppm	58.9 µg/mL
-2 h, 2500 ppm	84.6 µg/mL
-1.996 h, 2500 ppm	78.1 µg/mL
-0.2032 h, 2500 ppm	99.5 µg/mL
-0.1979 h, 2500 ppm	89.1 µg/mL
-0.1701 h, 2500 ppm	95.6 µg/mL
-0.031 h, 500 ppm	18.7 µg/mL
